# The supplement of paper PMC11208160
# Assay: recombinant UMI read abundance after kanamycin selection (control-corrected) (log10(CPM+1)); higher = more efficient recombination; extreme values may be limits of the assay; sequences stand for … in AGTGCAGAGAAAATCGGCCAGTTTTCTCTGCCTGCAGTCCGCATGCCGTGGGACCCCTTGGGTTCTAACCTGTTGCCTAGATTTATGCAGCGGACTGCCTTTCTCCCAAAGTGATAAACCGG…AGGTTGGTTTCACT; site = the 11-nt donor
# How it was run: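 Pooled Escherichia coli screen of donor and donor-binding-loop pairs for the IS621 bridge recombinase. Each pair sits with a 12-nt UMI on a plasmid carrying a promoterless kanamycin gene. The library was co-electroporated with a target plasmid encoding a fixed target and T7-inducible recombinase, then plated with IPTG (0.07 mM) plus kanamycin, or unselected, each in two replicates. Recombinant UMIs were PCR-amplified across the donor–target junction and sequenced. Counts became CPM, averaged over replicates, scaled by control-derived factors and reported as log10(CPM+1).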
row,Sequence,recombinant UMI read abundance (log10)
1,CGCCTTTCATGGACCGGTTTTCCCGGTAATCCGTATTTGAC (site GGCCTTTCTGT),0
2,CGCCTTTCATGGACCGGTTTTCCCGGTAATCCGTATTTGAC (site TGCCTTTCTGT),0
3,CGCGAGCCATGGACCGGTTTTCCCGGTAATCCGTATTTGGA (site CGCGAGCCTTC),0.181
4,CGCGCTCCATGGACCGGTTTTCCCGGTAATCCGTATTTGTC (site CGCGCTCCTGA),1.94
5,CGCGGACCATGGACCGGTTTTCCCGGTAATCCGTATTTGGG (site CGAGGACCTCC),0.0232
6,CGCGGACCATGGACCGGTTTTCCCGGTAATCCGTATTTGGG (site CGCGGACCTCC),0
7,CGCGGACCATGGACCGGTTTTCCCGGTAATCCGTATTTGGG (site CGGGGACCTCC),0.0209
8,CGCGGACCATGGACCGGTTTTCCCGGTAATCCGTATTTGGG (site CGTGGACCTCC),0.0246
9,CGCGGCACATGGACCGGTTTTCCCGGTAATCCGTATTTGTA (site CGCGGCACTTA),1.66
10,CGCGTCTCATGGACCGGTTTTCCCGGTAATCCGTATTTGTA (site CGCGTCTCTTA),3.26
11,CGCTAATCATGGACCGGTTTTCCCGGTAATCCGTATTTGGG (site CGCTAATCTCC),1.5
12,CGCTACTCATGGACCGGTTTTCCCGGTAATCCGTATTTGCT (site CGCTACTCTAG),2.85
13,CGCTAGCCATGGACCGGTTTTCCCGGTAATCCGTATTTGCC (site CACTAGCCTGG),0.0111
14,CGCTAGCCATGGACCGGTTTTCCCGGTAATCCGTATTTGCC (site CCCTAGCCTGG),0
15,CGCTAGCCATGGACCGGTTTTCCCGGTAATCCGTATTTGCC (site CGCTAGCCTGG),0.816
16,CGCTAGCCATGGACCGGTTTTCCCGGTAATCCGTATTTGCC (site CTCTAGCCTGG),1.8
17,CGCTCAACATGGACCGGTTTTCCCGGTAATCCGTATTTGCT (site CGATCATCTAG),0
18,CGCTCAACATGGACCGGTTTTCCCGGTAATCCGTATTTGCT (site CGCTCAACTAG),0
19,CGCTCAGCATGGACCGGTTTTCCCGGTAATCCGTATTTGGG (site AGCTCAGCTCC),0
20,CGCTCAGCATGGACCGGTTTTCCCGGTAATCCGTATTTGGG (site CGCTCAGCTCC),0.0677
21,CGCTCAGCATGGACCGGTTTTCCCGGTAATCCGTATTTGGG (site GGCTCAGCTCC),0
22,CGCTCAGCATGGACCGGTTTTCCCGGTAATCCGTATTTGGG (site TGCTCAGCTCC),0.00882
23,CGCTCCGCATGGACCGGTTTTCCCGGTAATCCGTATTTGCA (site CGCTCCGCTTG),1.79
24,CGCTCCTCATGGACCGGTTTTCCCGGTAATCCGTATTTGCA (site CGCTCCTCTTG),2.84
25,CGCTGAGCATGGACCGGTTTTCCCGGTAATCCGTATTTGGT (site CGCTGAGCTAC),1.31
26,CGCTGATCATGGACCGGTTTTCCCGGTAATCCGTATTTGCC (site CGCTGATCTGG),1.88

row,Sequence,recombinant UMI read abundance (log10)
1,CGCTGGACATGGACCGGTTTTCCCGGTAATCCGTATTTGAA (site CGCTGGACTTT),1.77
2,CGCTGTACATGGACCGGTTTTCCCGGTAATCCGTATTTGCT (site CGCAGTACTAG),0
3,CGCTGTACATGGACCGGTTTTCCCGGTAATCCGTATTTGCT (site CGCCGTACTAG),1.54
4,CGCTGTACATGGACCGGTTTTCCCGGTAATCCGTATTTGCT (site CGCGGTACTAG),0
5,CGCTGTACATGGACCGGTTTTCCCGGTAATCCGTATTTGCT (site CGCTGTACTAG),1.68
6,CGCTTCTCATGGACCGGTTTTCCCGGTAATCCGTATTTGGG (site CACTTCTCTCC),0.0042
7,CGCTTCTCATGGACCGGTTTTCCCGGTAATCCGTATTTGGG (site CCCTTCTCTCC),0.0589
8,CGCTTCTCATGGACCGGTTTTCCCGGTAATCCGTATTTGGG (site CGCTTCTCTCC),0.00699
9,CGCTTCTCATGGACCGGTTTTCCCGGTAATCCGTATTTGGG (site CTCTTCTCTCC),0.0109
10,CGCTTGGCATGGACCGGTTTTCCCGGTAATCCGTATTTGGA (site CACTTGGCTTC),0.361
11,CGCTTGGCATGGACCGGTTTTCCCGGTAATCCGTATTTGGA (site CCCTTGGCTTC),0
12,CGCTTGGCATGGACCGGTTTTCCCGGTAATCCGTATTTGGA (site CGCTTGGCTTC),0.824
13,CGCTTGGCATGGACCGGTTTTCCCGGTAATCCGTATTTGGA (site CTCTTGGCTTC),0.00767
14,CGGAAACCATGGACCGGTTTTCCCGGTAATCCGTATTTGCT (site CGGAAACCTAG),0
15,CGGAAACCATGGACCGGTTTTCCCGGTAATCCGTATTTGCT (site CGGAATCCTAA),0
16,CGGAACCCATGGACCGGTTTTCCCGGTAATCCGTATTTGGT (site CGGAACCCTAC),1.06
17,CGGAACCCATGGACCGGTTTTCCCGGTAATCCGTATTTGGT (site CGGAATCCTAA),0
18,CGGAACCCATGGACCGGTTTTCCCGGTAATCCGTATTTGTG (site CGGAACCCTCA),1.13
19,CGGAACCCATGGACCGGTTTTCCCGGTAATCCGTATTTGTG (site CGGAATCCTAA),0
20,CGGAAGACATGGACCGGTTTTCCCGGTAATCCGTATTTGTG (site CGGAAGACTCA),2.67
21,CGGAATCCATGGACCGGTTTTCCCGGTAATCCGTATTTGAC (site CGGAATCCTAA),0.003
22,CGGAATCCATGGACCGGTTTTCCCGGTAATCCGTATTTGAC (site CGGAATCCTGT),1.1
23,CGGAATCCATGGACCGGTTTTCCCGGTAATCCGTATTTGAT (site CGGAATCCTAA),0
24,CGGAATCCATGGACCGGTTTTCCCGGTAATCCGTATTTGAT (site CGGAATCCTAC),0.0207
25,CGGAATCCATGGACCGGTTTTCCCGGTAATCCGTATTTGAT (site CGGAATCCTAG),0
26,CGGAATCCATGGACCGGTTTTCCCGGTAATCCGTATTTGAT (site CGGAATCCTAT),0.646
